The values that follow come from US20100285038A1, “Factor Involved in Metastasis and Uses Thereof” (priority 2002, published 2010).

d = 2'-deoxy (DNA); m = 2'-O-methyl

What all share (format): cell-based, human
The subject of data set [1] is PRF1 protein. Nature of the data set: Western blot analysis of PRF1 protein expression in PC-3 cells. On the procedure:
A polyclonal antibody was generated against PRF1 using standard techniques. The polyclonal antibody thus obtained was tested for its specificity for PRF1. For that purpose, cell lysates from PC-3 cells treated with PRF1 specific antisense molecules, more particularly gene blocks, or mismatches thereof and cells transfected with expression plasmides for recombinant HA-tagged PRF1 were prepared. The lysates were analysed by Western blot analysis using the polyclonal antibody and the results are depicted in FIG. 8 A.
(§1) To investigate whether PI 3-kinase activity has an impact on PRF1 protein expression, PC-3 cells were treated either with LY294002 or with DMSO as control. Analysis was performed by Western Blot analysis using the polyclonal antibody as detection means for PRF1 protein. Apart from PRF1 protein, also expression of Akt and phosphorylated Akt (P*Akt) was monitored using respective specific antibodies. Additionally, the expression of p110α and p85 was monitored.
To investigate whether the expression of PRF1 at the protein level would also be dependent on Akt (PKB) activity and HIF1α activity PC-3 cells were treated with Akt specific antisense molecules. More particularly, two antisense molecules, designated Akt1-GB and Akt2-molecule were used with the readout being the same as discussed in connection with FIG. 9, whereby, additionally, the HIF1α protein expression was monitored using a commercially available protein G-purified polyclonal antibody (R&DSystems, Lot Number: IUGO13071).
The same experiment using the same markers for monitoring except Akt and P*-Akt was carried out with cells grown under hypoxic conditions which was realized by treating the cells with CoCl2. Two different forms of antisense molecules, namely HIF1α-GB66 and HIF1α-GB67 were used and respective mismatches used as controls.
A lane of the Blot represents the cell lysate of the cells shown in the corresponding photograph. As a read-out, p110 alpha and p85 are shown as loading control and the component of the PI-3K pathway investigated, i.e. AKT, monitored as P*AKT, HIF1 alpha and PRF1.
In general terms: In western blotting, separated proteins are transferred to a membrane and probed.

In data set [2] the test system is Akt and phosphorylated Akt (P*Akt). Nature of the data set: Western blot analysis of Akt and phosphorylated Akt in PC-3 cells. Particulars: DMSO as control (FIG. 9A). On the procedure: as §1
The subject of data set [3] is PRF1 (NM—019058) specific mRNA. Nature of the data set: PRF1 mRNA knock-down by real time RT-PCR (Taqman) in transfected PC-3 cells. Particulars: PC-3 cells seeded on matrigel; standardized to internal p110α mRNA levels; DCt method. On the procedure: Transfections were carried out in 96 well or 10-cm plates (at 30% to 50% confluency) by using various cationic lipids such as Oligofectamine, Lipofectamine (Life Technologies), NC388 (Ribozyme Pharmaceuticals, Inc., Boulder, Colo.), or FuGene 6 (Roche) according to the manufacturer's instructions. GeneBlocs were transfected by adding pre-formed 5× concentrated complex of GeneBloc and lipid in serum-free medium to cells in complete medium. The total transfection volume was 100 μl for cells plated in 96 wells and 10 ml for cells in 10 cm plates. The final lipid concentration was 0.8 to 1.2 μg/ml depending on cell density; the GeneBloc concentration is indicated in each experiment.
The RNA of cells transfected in 96-wells was isolated and purified using the Invisorb RNA HTS 96 kit (InVitek GmbH, Berlin). Inhibition of PRF1 mRNA expression was detected by real time RT-PCR (Taqman) analysis using 300 nM PRF1 5′ primer, 300 nM PRF1 3′ primer and 100 nM of the PRF1 Taqman probe Fam-Tamra labelled. […]
PC3 cells were transfected and seeded on matrigel as described and growth was monitored. mRNA was isolated from an aliquot of the cells seeded on matrigel and analysed using Taqman assay (left panel). […]
For orientation: Quantitative PCR measures a nucleic acid by following its amplification.

Data set [4] concerns PC-3 cells. Nature of the data set: In vitro growth on Matrigel matrix. Particulars: PC-3 cells transfected with GeneBloc; versus corresponding mismatched oligonucleotides. The method, then: PC3 cells were treated with 10 μM LY294002 or DMSO when seeded on Matrigel. If cells were transfected previous to seeding cells were transfected with GeneBloc and trypsinized 48 h post transfection. The cells were washed in medium and seeded into duplicate 24-wells (100.000 cells per well) pre-coated with 250 μl matrigel basement membrane matrix (Becton Dickinson). After incubation for 24 to 72 h photographs were taken at 5× magnification with an Axiocam camera attached to an Axiovert 5100 microscope (Zeiss).
A more confluent growth of the cells is taken as an indication that their metastasis and migration behavior is increased which allows the cells to spread over the three-dimensional structure provided by the matrigel. The result of this example is depicted in FIG. 5.
PC3 cells were transfected and seeded on matrigel as described and growth was monitored. mRNA was isolated from an aliquot of the cells seeded on matrigel and analysed using Taqman assay (left panel). PRF1 (NM_019058) specific mRNA was standardized to internal p110α mRNA levels. A PTEN specific GeneBloc is used as a negative control in the PTEN^−/− PC-3 cells and a p110β specific GeneBloc is used as a positive control for growth in extracellular matrix. […]

Data set [5] deals with PI 3-kinase (p110α and p85). Nature of the data set: Western blot analysis of PI 3-kinase (p110α and p85) expression in PC-3 cells. Particulars: lysates of PC-3 cells treated with PRF1 specific GeneBloc (FIG. 8A).

As to `O=c1cc(N2CCOCC2)oc2c(-c3ccccc3)cccc12` [LY294002, 2-(4-morpholinyl)-8-phenylchromone], the PRF1 protein expression entry in data set [1] (PC-3 cells, after 72 and 96 h, DMSO as control (FIG. 9A)) is “down regulated”. In addition, in data set [2], the “Akt and phosphorylated Akt” value is “down regulated”.
For the compound “GeneBloc 70043: third generation antisense oligonucleotide directed to PRF1 mRNA, SEQ ID NO. 7 (antisense CCCAAAAGTTCAGTCGUCUCU; sugars from the 5' end m6 d9 m6, backbone and methylation of C not given here; DNA gap phosphorothioate-linked, flank linkages not clearly stated, further chemistry not fully specified)”, in data set [3], the “knockdown of the mRNA of PRF1” value is recorded as “significant knockdown”. Besides, the growth on matrigel entry in data set [4] is on record as “Specific growth inhibition”. Besides, the “expressed PRF1 protein” value in data set [1] (lysates of PC-3 cells treated with PRF1 specific GeneBlocs or mismatches, polyclonal antibody (FIG. 8A)) was “clear reduction”. In data set [5], the “PI 3-kinase expression (p110α and p85 specific antibodies)” value is “still being extensively expressed”.
